Reference: PubChem BioAssay AID248 (DTP/NCI, 2004)
“And” between values parts separate entries of the source, which are not always exact repeats. Equal entries are not always repeated. Toxic doses and inconclusive results are not listed.

Tested on: L1210 leukemia ip in BDF1 mice, survival T/C
Test: NCI In Vivo Anticancer Drug Screen. Data for tumor model L1210 Leukemia (intraperitoneal) in B6D2F1 (BDF1) mice
Settings: endpoint: mean survival time, higher = longer survival
In short: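 Antitumor effect is assessed in tumor-bearing animals. Survival in the compound arm is compared with a vehicle-dosed control arm and expressed as their quotient.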

[1] = dose: 50.0 mg/kg/injection, schedule: Q01DX001 (ip), vehicle: carboxymethylcellulose (CMC)
[2] = dose: 100.0 mg/kg/injection, schedule: Q01DX001 (ip), vehicle: carboxymethylcellulose (CMC)
[3] = dose: 200.0 mg/kg/injection, schedule: Q01DX001 (ip), vehicle: carboxymethylcellulose (CMC)
[4] = dose: 400.0 mg/kg/injection, schedule: Q01DX001 (ip), vehicle: carboxymethylcellulose (CMC)
[5] = dose: 100.0 mg/kg/injection, schedule: Q04DX002 (ip), vehicle: Klucel (hydroxypropylcellulose) (HPC)
[6] = dose: 200.0 mg/kg/injection, schedule: Q04DX002 (ip), vehicle: Klucel (hydroxypropylcellulose) (HPC)
[7] = dose: 100.0 mg/kg/injection, schedule: Q01DX009 (ip), vehicle: saline

In the case of CCOC(=O)/C(C#N)=C\c1cc(O)c(O)c(OC)c1, the T/C [1] is reported as 100 % of control, the T/C [2] is reported as 92 % of control and the T/C [3] is reported as 97 % of control. For the same compound, the T/C [4] was 103 % of control.

For CN(C)C1CCCCCCC1, the T/C (dose: 75.0 mg/kg/injection, schedule: Q01DX001 (ip), vehicle: acetone) was 95 % of control.

In the case of CCC1CN1CC1CO1 (stereo unspecified), the T/C (dose: 4.0 mg/kg/injection, schedule: Q01DX Z (ip), vehicle: saline) is reported as 101 % of control, the T/C (dose: 7.0 mg/kg/injection, schedule: Q01DX Z (ip), vehicle: saline) is reported as 106 % of control and the T/C (dose: 10.0 mg/kg/injection, schedule: Q01DX Z (ip), vehicle: saline) is reported as 95 % of control. The T/C (dose: 33.0 mg/kg/injection, schedule: Q01DX Z (ip), vehicle: saline) was 158 % of control and 196 % of control, the T/C (dose: 50.0 mg/kg/injection, schedule: Q01DX Z (ip), vehicle: saline) was 123 % of control and 183 % of control and 218 % of control and the T/C (dose: 75.0 mg/kg/injection, schedule: Q01DX Z (ip), vehicle: saline) was 120 % of control.

O=C(Nc1ccc(Br)cc1C(=O)O)c1cccc(Br)c1 was tested, and the T/C (dose: 100.0 mg/kg/injection, schedule: Q01DX001 (ip), vehicle: other) was 103 % of control.

c1ccc(Nc2ncn[nH]2)cc1 was tested, and the T/C (dose: 100.0 mg/kg/injection, schedule: Q04DX002 (ip), vehicle: gum acacia) was 106 % of control, the T/C (dose: 200.0 mg/kg/injection, schedule: Q04DX002 (ip), vehicle: gum acacia) was 103 % of control and the T/C (dose: 400.0 mg/kg/injection, schedule: Q04DX002 (ip), vehicle: gum acacia) was 117 % of control.

With ClC1=C(Cl)C2(Cl)C(Br)C(Br)C1(Cl)C2(Cl)Cl (stereo unspecified) the T/C (dose: 100.0 mg/kg/injection, schedule: Q01DX009 (ip), vehicle: saline sonified) was 95 % of control, the T/C (dose: 100.0 mg/kg/injection, schedule: Q04DX003 (ip), vehicle: Klucel (hydroxypropylcellulose) (HPC)) was 102 % of control and the T/C (dose: 200.0 mg/kg/injection, schedule: Q01DX009 (ip), vehicle: saline sonified) was 96 % of control. The T/C (dose: 200.0 mg/kg/injection, schedule: Q04DX003 (ip), vehicle: Klucel (hydroxypropylcellulose) (HPC)) was 93 % of control, the T/C (dose: 400.0 mg/kg/injection, schedule: Q01DX009 (ip), vehicle: saline sonified) was 95 % of control and the T/C (dose: 400.0 mg/kg/injection, schedule: Q04DX003 (ip), vehicle: Klucel (hydroxypropylcellulose) (HPC)) was 96 % of control.

For CCCCCCCCCCCCCCCCCCNC(=O)Nc1ccccc1, the T/C (dose: 100.0 mg/kg/injection, schedule: Q01DX009 (ip), vehicle: other) was 101 % of control, the T/C (dose: 200.0 mg/kg/injection, schedule: Q01DX009 (ip), vehicle: other) was 100 % of control and the T/C (dose: 400.0 mg/kg/injection, schedule: Q01DX009 (ip), vehicle: other) was 97 % of control.

CC1CCOCO1 (stereo unspecified) was tested, and the T/C [1] was 98 % of control, the T/C [2] was 98 % of control and the T/C [3] was 95 % of control. For the same compound, the T/C [4] was 95 % of control.

In the case of CCOC1=C(C#N)CC2(CC1)c1ccccc1-c1ccccc12, the T/C (dose: 100.0 mg/kg/injection, schedule: Q01DX009 (ip), vehicle: Klucel (hydroxypropylcellulose) (HPC)) is reported as 96 % of control, the T/C (dose: 200.0 mg/kg/injection, schedule: Q01DX009 (ip), vehicle: Klucel (hydroxypropylcellulose) (HPC)) is reported as 95 % of control and the T/C (dose: 400.0 mg/kg/injection, schedule: Q01DX009 (ip), vehicle: Klucel (hydroxypropylcellulose) (HPC)) is reported as 95 % of control.

Cc1cnc(N(C)CC(=O)O)nc1-c1ccccc1O was tested, and the T/C [5] was 96 % of control and the T/C [6] was 89 % of control.

With CCNC(C1CCCCC1)C(C)OC(=O)c1ccc(N)cc1 (stereo unspecified) the T/C (dose: 75.0 mg/kg/injection, schedule: Q01DX001 (ip), vehicle: saline) was 98 % of control.

For C=C1C(=O)O[C@@H]2C[C@@H](C)[C@@H]3CC(=O)OC[C@@]3(C)C[C@H]12, the T/C (dose: 100.0 mg/kg/injection, schedule: Q04DX003 (ip), vehicle: saline with Tween-80) was 95 % of control and the T/C (dose: 200.0 mg/kg/injection, schedule: Q04DX003 (ip), vehicle: saline with Tween-80) was 97 % of control.

In the case of Oc1ccc(I)c2cccnc12, the T/C (dose: 22.5 mg/kg/injection, schedule: Q01DX009 (ip), vehicle: saline) is reported as 165 % of control, the T/C (dose: 45.0 mg/kg/injection, schedule: Q01DX009 (ip), vehicle: saline) is reported as 240 % of control and the T/C (dose: 90.0 mg/kg/injection, schedule: Q01DX009 (ip), vehicle: saline) is reported as 297 % of control. The T/C [2] was 93 % of control, the T/C [7] was 169 % of control and the T/C (dose: 180.0 mg/kg/injection, schedule: Q01DX009 (ip), vehicle: saline) was 206 % of control. The T/C [3] was 90 % of control and the T/C [4] was 95 % of control.

In the case of CCC(=O)Nc1ccccc1Cl, the T/C (dose: 100.0 mg/kg/injection, schedule: Q01DX009 (ip), vehicle: saline with Tween-80) is reported as 97 % of control, the T/C (dose: 200.0 mg/kg/injection, schedule: Q01DX009 (ip), vehicle: saline with Tween-80) is reported as 98 % of control and the T/C (dose: 400.0 mg/kg/injection, schedule: Q01DX009 (ip), vehicle: saline with Tween-80) is reported as 101 % of control.

For O=C(Nc1ncccn1)Nc1cccc2ccccc12, the T/C (dose: 12.5 mg/kg/injection, schedule: Q04DX002 (ip), vehicle: Klucel (hydroxypropylcellulose) (HPC)) was 102 % of control, the T/C (dose: 25.0 mg/kg/injection, schedule: Q04DX002 (ip), vehicle: Klucel (hydroxypropylcellulose) (HPC)) was 97 % of control and the T/C (dose: 50.0 mg/kg/injection, schedule: Q04DX002 (ip), vehicle: Klucel (hydroxypropylcellulose) (HPC)) was 97 % of control. For the same compound, the T/C [5] was 92 % of control, the T/C [6] was 92 % of control and the T/C (dose: 400.0 mg/kg/injection, schedule: Q04DX002 (ip), vehicle: Klucel (hydroxypropylcellulose) (HPC)) was 95 % of control.

With Cc1cc2nc3[nH]c4ccccc4c3nc2cc1C the T/C (dose: 12.5 mg/kg/injection, schedule: Q01DX015 (ip), vehicle: saline) was 98 % of control, the T/C (dose: 25.0 mg/kg/injection, schedule: Q01DX015 (ip), vehicle: saline) was 87 % of control and the T/C (dose: 50.0 mg/kg/injection, schedule: Q01DX001 (ip), vehicle: saline) was 91 % of control. The T/C (dose: 50.0 mg/kg/injection, schedule: Q01DX015 (ip), vehicle: saline) was 115 % of control, the T/C (dose: 100.0 mg/kg/injection, schedule: Q01DX001 (ip), vehicle: saline) was 94 % of control and the T/C (dose: 100.0 mg/kg/injection, schedule: Q01DX015 (ip), vehicle: saline) was 120 % of control. The T/C (dose: 200.0 mg/kg/injection, schedule: Q01DX001 (ip), vehicle: saline) was 91 % of control, the T/C (dose: 200.0 mg/kg/injection, schedule: Q01DX015 (ip), vehicle: saline) was 108 % of control and 90 % of control and the T/C (dose: 400.0 mg/kg/injection, schedule: Q01DX001 (ip), vehicle: saline) was 97 % of control. For the same compound, the T/C (dose: 400.0 mg/kg/injection, schedule: Q01DX015 (ip), vehicle: saline) was 104 % of control, the T/C (dose: 800.0 mg/kg/injection, schedule: Q01DX001 (ip), vehicle: saline) was 103 % of control and the T/C (dose: 800.0 mg/kg/injection, schedule: Q01DX015 (ip), vehicle: saline) was 87 % of control.

With CCOC(O)C(Cl)(Cl)Cl (stereo unspecified) the T/C [7] was 103 % of control, the T/C (dose: 100.0 mg/kg/injection, schedule: Q04DX003 (ip), vehicle: saline) was 100 % of control and the T/C (dose: 200.0 mg/kg/injection, schedule: Q01DX009 (ip), vehicle: saline) was 102 % of control. The T/C (dose: 200.0 mg/kg/injection, schedule: Q04DX003 (ip), vehicle: saline) was 103 % of control, the T/C (dose: 400.0 mg/kg/injection, schedule: Q01DX009 (ip), vehicle: saline) was 92 % of control and the T/C (dose: 400.0 mg/kg/injection, schedule: Q04DX003 (ip), vehicle: saline) was 90 % of control.
